Reference: paper PMC5531494, “Target specificity, in vivo pharmacokinetics, and efficacy of the putative STAT3 inhibitor LY5 in osteosarcoma, Ewing's sarcoma, and rhabdomyosarcoma” (PLoS ONE, 2017)

Assays:
[1] = tested on: 96 human protein or lipid kinases; assay: KINOMESCAN binding profile
Description: To determine the specificity of STAT blockade, we asked whether LY5 affected the phosphorylation of other family members including STAT1, STAT2, STAT4, and STAT6 [30–32]. […] To further define any potential off-target effects, we profiled the direct (steric) or indirect (allosteric) binding of LY5 to the binding sites of 96 human protein or lipid kinases (KINOMESCAN, www.kinomescan.com).
Supplementary file pone.0181885.s001.pdf: S1 Fig Kinomescan results for LY5. […] At 5 μM LY5 (B), only interaction with PLK3 was identified, mapped S-score (35) = 0.01. (PDF) Click here for additional data file.

RH30 cells = assay: Alamar Blue cell viability assay; format: cell-based; conditions: Homo sapiens; RH30, 96 hours
Description: (§1) Sarcoma cell lines were seeded in 24-well plates in 1X RPMI medium containing 10% fetal bovine serum. Cells were then incubated with DMSO (control) or concentrations of LY5 ranging from 10 nM to 10 μM for 96 hrs. At the end of the incubation period, Alamar Blue (Invitrogen, Carlsbad, CA) was added to cells at one-tenth the volume of the cell culture medium and incubated for 3 hrs at 37° C in the dark. Fluorescence was then measured at an excitation/emissions wavelength of 570/590 nm and emission wavelength of 590 nm.
(§2) Fig 2 Biologic activity of LY5 in sarcoma cell lines. Dose response curves for LY5: RMS cell lines (RH30, RD, JR-1), ES cell lines (ES-3, ES-6, ES-7, ES-8), and an OS cell line (OS-17) were treated with LY5 (concentrations ranging from 10 nM to 10 μM) for 96 hours. Cell viability was determined using Alamar Blue staining. IC50 values are indicated for each cell line. Analyses were performed in triplicate and data are plotted as means ± standard deviation.

ES-8 cells = assay: Alamar Blue cell viability assay; format: cell-based; conditions: Homo sapiens, ES8; ES-8, 96 hours
Description: as §1, §2

RD cells = assay: Alamar Blue cell viability assay; format: cell-based; conditions: Homo sapiens, 96 hours
Description: as §1, §2

ES-7 cells = assay: Alamar Blue cell viability assay; format: cell-based; conditions: Homo sapiens, ES7; ES-7, 96 hours
Description: as §1, §2

OS-17 cells = assay: Alamar Blue cell viability assay; format: cell-based; conditions: Homo sapiens; OS-17, 96 hours
Description: as §1, §2

ES-6 cells = assay: Alamar Blue cell viability assay; format: cell-based; conditions: Homo sapiens; ES-6, 96 hours
Description: as §1, §2

ES-3 cells = assay: Alamar Blue cell viability assay; format: cell-based; conditions: Homo sapiens; ES-3, 96 hours
Description: as §1, §2

JR-1 cells = assay: Alamar Blue cell viability assay; format: cell-based; conditions: Homo sapiens; JR-1, 96 hours
Description: as §1, §2

[2] = Clinical toxicities in normal dogs; format: in vivo; conditions: 1 mg/kg, 24 hour PK collection timeframe
Description: LY5 was evaluated in two normal purpose-bred beagle dogs (female 8.8 kg; male 11.2 kg) receiving a single dose of 1mg/kg LY5 IV then orally by gavage 7 days later to establish the PK profile and assess the spectrum of clinical toxicities associated with LY5 administration. The oral dosing was repeated in the fed and fasted state. The starting dose was determined based on allometric scaling from the maximal tolerated dose studies performed in mice. Dogs were washed out for 30 days, and then given a dose of 25 mg in a capsule orally, followed by a 50 mg capsule dose 14 days later. Full PK sampling was performed over 24 hours following each dose of LY5. The dogs received LY5 and were used for the PK analysis but were not euthanized upon conclusion of the study.

STAT6 = target: T1, STAT6 (Homo sapiens, UniProt P42226); assay: Cytokine-induced STAT6 phosphorylation in SJSA cells, Western blot; format: cell-based; conditions: induced by IFN-γ, IFN-α, or IL-4
T1 construct: endogenous in cells; host or cells: SJSA
T1 sequence (P42226 whole entry): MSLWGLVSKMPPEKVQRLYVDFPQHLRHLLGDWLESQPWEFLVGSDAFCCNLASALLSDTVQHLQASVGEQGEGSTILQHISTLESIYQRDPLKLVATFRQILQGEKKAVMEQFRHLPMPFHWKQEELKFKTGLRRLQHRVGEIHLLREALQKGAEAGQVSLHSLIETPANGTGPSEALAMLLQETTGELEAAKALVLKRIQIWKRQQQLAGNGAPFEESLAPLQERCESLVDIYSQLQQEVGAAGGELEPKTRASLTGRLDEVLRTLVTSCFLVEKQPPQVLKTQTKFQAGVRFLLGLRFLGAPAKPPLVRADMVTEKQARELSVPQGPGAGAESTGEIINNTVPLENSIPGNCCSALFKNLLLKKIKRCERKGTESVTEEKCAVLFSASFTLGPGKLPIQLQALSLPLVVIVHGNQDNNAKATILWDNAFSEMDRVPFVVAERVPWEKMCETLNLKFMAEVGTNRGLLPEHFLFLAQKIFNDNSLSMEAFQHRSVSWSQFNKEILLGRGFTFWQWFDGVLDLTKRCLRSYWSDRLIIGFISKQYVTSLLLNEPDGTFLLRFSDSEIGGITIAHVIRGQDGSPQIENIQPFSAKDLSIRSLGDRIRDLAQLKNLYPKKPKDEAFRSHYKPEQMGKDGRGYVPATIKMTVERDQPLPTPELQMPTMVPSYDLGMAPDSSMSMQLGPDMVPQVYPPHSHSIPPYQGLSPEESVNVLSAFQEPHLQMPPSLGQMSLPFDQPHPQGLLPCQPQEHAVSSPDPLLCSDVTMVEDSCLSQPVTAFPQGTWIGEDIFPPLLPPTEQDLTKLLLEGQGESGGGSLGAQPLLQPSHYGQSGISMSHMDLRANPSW
Description: (§3) Cell lysis, protein isolation and immunoblotting were performed as described previously. Twenty micrograms of protein were resolved using 4–12% Bis-Tris polyacrylamide gels. Gels were transferred to PVDF membranes and subjected to blocking and incubation with primary and secondary antibodies. The primary antibodies used in this study included: phospho-STAT3 (Tyr705, Cell Signaling, Boston, MA and Abcam, Cambridge, MA), total STAT3 (Cell Signaling and Abcam), phospho-STAT1 (Cell Signaling), total STAT1 (Cell Signaling), phospho-STAT2 (Cell Signaling), phospho-STAT4 (Cell Signaling), phospho-STAT6 (Cell Signaling), and GAPDH (Cell Signaling). Protein bands were detected using Western Lightning ® Plus Enhanced Chemiluminescence substrate (Perkin Elmer, Waltham, MA) and HyBlot CL ® Autoradiography film (Denville Scientific, Holliston, MA). The cytokines used in this study included: interferon gamma (IFN-γ, Cell Signaling), interferon alpha (IFN-α, Cell Signaling), interleukin-4 (IL-4, Cell Signaling), interleukin-6 (IL-6, Cell Signaling), and oncostatin M (OSM, Cell Signaling).
(§4) Fig 1 LY5 inhibits pSTAT3 in sarcoma cell lines. (A) The tumor cell lines RH30, EW8, and RD were treated with increasing concentrations of LY5 for 30 minutes. Cell lysates were collected for Western blotting of p-STAT3, total STAT3, and GAPDH. GAPDH was used as loading control. […]

[3] = Liver microsomal stability; format: in vitro ADME, canine; conditions: compared to mice; data not shown
From the text: The liquid chromatography-mass spectrometry system utilized for these analyses consisted of a Dionex Ultimate 3000 RSLCnano High Performance Liquid Chromatography system and a Thermo Finnigan Quantum Ultras EMR mass spectrometer with an electrospray ionization source. Positive ionization mode was used for both LY5 and the internal standard, hesperetin. Plasma samples were collected and analyzed by the OSU James Comprehensive Cancer Center Pharmacoanalytical Shared Resource. Pharsight Phoenix WinNonlin software using non-compartmental analysis was used to generate PK parameters including maximum plasma concentration (Cmax), amount of time that drug is present at Cmax (Tmax), and total area under the curve (AUC). AUC all and AUC last were calculated by linear trapezoidal method of concentration-time curve up to the last measured point. AUC inf-obs was calculated by log-linear extrapolation of the terminal phase beyond the last collection time. Bioavailability (F) was calculated for IP and PO administration routes. Plasma stability and liver microsomal stability of LY5 were also assessed through this shared resource.

STAT3 = STAT3 (Homo sapiens, UniProt P40763); assay: Western blot of basal p-STAT3 (Tyr705) in sarcoma cell lines RH30, EW8, RD; format: cell-based; parameters: endogenous in cells; conditions: ES, OS and RMS cells, RH30, EW8, RD treated 30 minutes
STAT3, sequence (P40763 whole entry): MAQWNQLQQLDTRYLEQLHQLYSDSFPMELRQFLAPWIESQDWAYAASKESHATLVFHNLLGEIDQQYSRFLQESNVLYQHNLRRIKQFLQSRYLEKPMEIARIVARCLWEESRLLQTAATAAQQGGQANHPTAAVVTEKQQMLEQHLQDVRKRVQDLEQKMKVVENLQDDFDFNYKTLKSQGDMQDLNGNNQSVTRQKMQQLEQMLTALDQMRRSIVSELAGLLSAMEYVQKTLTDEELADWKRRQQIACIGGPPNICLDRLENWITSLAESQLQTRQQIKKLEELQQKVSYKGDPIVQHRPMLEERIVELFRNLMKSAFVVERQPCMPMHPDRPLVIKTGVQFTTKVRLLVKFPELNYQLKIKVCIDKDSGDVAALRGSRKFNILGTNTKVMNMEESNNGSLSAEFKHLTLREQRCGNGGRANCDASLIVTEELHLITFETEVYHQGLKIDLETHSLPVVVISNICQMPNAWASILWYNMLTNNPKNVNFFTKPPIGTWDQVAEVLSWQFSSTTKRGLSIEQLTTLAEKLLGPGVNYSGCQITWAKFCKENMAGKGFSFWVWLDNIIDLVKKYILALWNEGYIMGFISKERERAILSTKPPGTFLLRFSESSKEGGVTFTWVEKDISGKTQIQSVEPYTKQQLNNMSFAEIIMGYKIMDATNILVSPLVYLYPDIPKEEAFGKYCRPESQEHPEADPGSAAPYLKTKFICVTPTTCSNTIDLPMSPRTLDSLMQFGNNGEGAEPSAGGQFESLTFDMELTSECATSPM
Description: as §3, §4

Protein binding in mice = format: in vitro ADME

## NS(=O)(=O)c1cccc2c1C(=O)C=C(Nc1cccnc1)C2=O [LY5, 5,8-dioxo-6-(pyridin-3-ylamino)-5,8-dihydronaphthalene-1-sulfonamide]
[1]; 1 μM LY5
  binding to any of 96 kinases: no binding
  mapped S-score (35): 0
[1]; 5 μM LY5
  mapped S-score (35): 0.01
RH30 cells
  IC50: 428 nM
ES-8 cells
  IC50: 2000 nM
RD cells
  IC50: 204 nM
ES-7 cells
  IC50: 2150 nM
OS-17 cells
  IC50: 1430 nM
ES-6 cells
  IC50: 5060 nM
ES-3 cells
  IC50: 3420 nM
JR-1 cells
  IC50: 271 nM
[2]
  tolerability / acute clinical toxicities: well tolerated without apparent acute clinical toxicities
STAT6
  phosphorylation of STAT6: did not inhibit
[3]
  stability when incubated with canine liver microsomes: increased stability
STAT3
  basal STAT3 phosphorylation at Tyr705: inhibited basal STAT3 phosphorylation
Protein binding in mice
  drug protein-bound: Approximately 90%
